From PubChem BioAssay (NCI)
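Five concentrations, 48 hours, 96-well plates. At the GI50, growth is halved. The concentration for full growth arrest is given as TGI.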

How the values were obtained:
Test in all cases: growth of human tumour cells (NCI), 48 h
K-562 leukemia = tested on: K-562 leukemia
OVCAR-5 ovarian = tested on: OVCAR-5 ovarian
HL-60(TB) leukemia = tested on: HL-60(TB) leukemia
HCT-116 colon = tested on: HCT-116 colon
HOP-62 NSCLC = tested on: HOP-62 NSCLC
ACHN renal = tested on: ACHN renal
IGROV1 ovarian = tested on: IGROV1 ovarian
NCI-H522 lung = tested on: NCI-H522 lung
RXF 393 renal = tested on: RXF 393 renal

Structure (SMILES): O=C(CCc1nnc2sc(-c3ccc(Cl)cc3Cl)nn12)c1nc2ccccc2[nH]1
- GI50 (K-562 leukemia): 0.451 µM
- TGI (K-562 leukemia): 2.56 µM
- GI50 (OVCAR-5 ovarian): 1.96 µM
- TGI (OVCAR-5 ovarian): 4.23 µM
- GI50 (HL-60(TB) leukemia): 1.24 µM
- TGI (HL-60(TB) leukemia): 5.52 µM
- GI50 (HCT-116 colon): 0.247 µM
- TGI (HCT-116 colon): 0.692 µM
- GI50 (HOP-62 NSCLC): 0.577 µM
- TGI (HOP-62 NSCLC): 2.12 µM
- GI50 (ACHN renal): 0.337 µM
- TGI (ACHN renal): 1.29 µM
- GI50 (IGROV1 ovarian): 0.953 µM
- TGI (IGROV1 ovarian): 6.35 µM
- GI50 (NCI-H522 lung): 0.755 µM
- TGI (NCI-H522 lung): 2.18 µM
- GI50 (RXF 393 renal): 0.394 µM
- TGI (RXF 393 renal): 1.04 µM

Structure (SMILES): CC/C=C\C[C@H](F)C/C=C1/C(=O)C=C[C@@H]1C/C=C\CCCC(=O)O
- GI50 (K-562 leukemia): 2.18 µM
- TGI (K-562 leukemia): > 32.5 µM
- GI50 (OVCAR-5 ovarian): 8.18 µM
- TGI (OVCAR-5 ovarian): 21 µM
- GI50 (HL-60(TB) leukemia): 3.41 µM
- TGI (HL-60(TB) leukemia): 16.8 µM
- GI50 (HCT-116 colon): 1.34 µM
- TGI (HCT-116 colon): 4.78 µM
- GI50 (HOP-62 NSCLC): 7.65 µM
- TGI (HOP-62 NSCLC): 15.2 µM
- GI50 (ACHN renal): 4.99 µM
- TGI (ACHN renal): 9.85 µM
- GI50 (IGROV1 ovarian): 9.97 µM
- TGI (IGROV1 ovarian): 32.1 µM
- GI50 (NCI-H522 lung): 4.58 µM
- TGI (NCI-H522 lung): 10.9 µM
- GI50 (RXF 393 renal): 5.19 µM
- TGI (RXF 393 renal): 10.2 µM

Structure (SMILES): Cc1c(C(=O)C/C(=N/NC(=O)C[N+](C)(C)C)C(=O)Nc2ccc(Cl)cc2)[n+](=O)c2ccccc2n1O
- TGI (K-562 leukemia): > 100 µM
- TGI (OVCAR-5 ovarian): > 100 µM
- TGI (HL-60(TB) leukemia): > 100 µM
- TGI (HCT-116 colon): > 100 µM
- TGI (HOP-62 NSCLC): > 100 µM
- TGI (ACHN renal): > 100 µM
- TGI (IGROV1 ovarian): > 100 µM
- TGI (NCI-H522 lung): > 100 µM
- TGI (RXF 393 renal): > 100 µM

Structure (SMILES): CC1CN1C(=O)NCCCCCCNC(=O)N1CC1C (stereo not drawn)
- TGI (K-562 leukemia): > 100 µM
- TGI (OVCAR-5 ovarian): > 100 µM
- TGI (HL-60(TB) leukemia): > 100 µM
- TGI (HCT-116 colon): > 100 µM
- TGI (HOP-62 NSCLC): > 100 µM
- TGI (ACHN renal): > 100 µM
- TGI (IGROV1 ovarian): > 100 µM
- TGI (NCI-H522 lung): > 100 µM
- TGI (RXF 393 renal): > 100 µM

Structure (SMILES): Cc1ccc(-c2nc3nc(-c4ccccc4)nc(N4CCCNCC4)c3o2)cc1
- GI50 (K-562 leukemia): 0.442 µM
- TGI (K-562 leukemia): 1.86 µM
- GI50 (OVCAR-5 ovarian): 1.89 µM
- TGI (OVCAR-5 ovarian): 3.37 µM
- GI50 (HL-60(TB) leukemia): 0.726 µM
- TGI (HL-60(TB) leukemia): 2.49 µM
- GI50 (HCT-116 colon): 1.31 µM
- TGI (HCT-116 colon): 2.65 µM
- GI50 (HOP-62 NSCLC): 1.81 µM
- TGI (HOP-62 NSCLC): 3.36 µM
- GI50 (ACHN renal): 1.73 µM
- TGI (ACHN renal): 3.12 µM
- GI50 (IGROV1 ovarian): 1.74 µM
- TGI (IGROV1 ovarian): 3.39 µM
- GI50 (NCI-H522 lung): 1.73 µM
- TGI (NCI-H522 lung): 3.39 µM
- GI50 (RXF 393 renal): 1.69 µM
- TGI (RXF 393 renal): 3.32 µM

Structure (SMILES): CS(=O)(=O)c1ccc(-n2nc(C(F)(F)F)cc2OC2CCCC2)cc1
- GI50 (K-562 leukemia): 29.1 µM
- TGI (K-562 leukemia): 92.6 µM
- GI50 (OVCAR-5 ovarian): > 100 µM
- TGI (OVCAR-5 ovarian): > 100 µM
- GI50 (HL-60(TB) leukemia): 24 µM
- TGI (HL-60(TB) leukemia): 59.3 µM
- GI50 (HCT-116 colon): 34.5 µM
- TGI (HCT-116 colon): > 100 µM
- GI50 (HOP-62 NSCLC): 88 µM
- TGI (HOP-62 NSCLC): > 100 µM
- GI50 (ACHN renal): 22.4 µM
- TGI (ACHN renal): 56 µM
- GI50 (IGROV1 ovarian): > 100 µM
- TGI (IGROV1 ovarian): > 100 µM
- GI50 (NCI-H522 lung): 45.8 µM
- TGI (NCI-H522 lung): > 100 µM
- GI50 (RXF 393 renal): 94.3 µM
- TGI (RXF 393 renal): > 100 µM

Structure (SMILES): COc1cc[nH]c1/C=C1\C(=O)Nc2ccc(F)c(C#CC3(O)CCNCC3)c21
- GI50 (K-562 leukemia): 0.55 µM
- TGI (K-562 leukemia): 2.51 µM
- GI50 (OVCAR-5 ovarian): 0.275 µM
- TGI (OVCAR-5 ovarian): 2.37 µM
- GI50 (HL-60(TB) leukemia): 0.0532 µM
- TGI (HL-60(TB) leukemia): 0.228 µM
- GI50 (HCT-116 colon): 0.0125 µM
- TGI (HCT-116 colon): 2.76 µM
- GI50 (HOP-62 NSCLC): 0.261 µM
- TGI (HOP-62 NSCLC): 1.47 µM
- GI50 (ACHN renal): 0.0262 µM
- TGI (ACHN renal): 2.56 µM
- GI50 (IGROV1 ovarian): 0.383 µM
- TGI (IGROV1 ovarian): 2.27 µM
- GI50 (NCI-H522 lung): 0.22 µM
- TGI (NCI-H522 lung): 0.715 µM
- GI50 (RXF 393 renal): 0.0204 µM
- TGI (RXF 393 renal): 0.201 µM
